In ChEMBL document CHEMBL4828751, “Discovery of novel tubulin/HDAC dual-targeting inhibitors with strong antitumor and antiangiogenic potency” (Eur J Med Chem, 2021):

Legend:
[1] = system: HepG2; assay: Antiproliferative activity against human HepG2 cells assessed as cell growth inhibition after 72 hrs by SRB assay; format: functional, cell-based; conditions: HepG2, 72 h
[2] = system: MCF7; assay: Antiproliferative activity against human MCF7 cells assessed as cell growth inhibition after 72 hrs by SRB assay; format: functional, cell-based; conditions: MCF7, 72 h
[3] = system: HeLa; assay: Antiproliferative activity against human HeLa cells assessed as cell growth inhibition after 72 hrs by SRB assay; format: functional, cell-based
[4] = system: MGC-803; assay: Antiproliferative activity against human MGC-803 cells assessed as cell growth inhibition after 72 hrs by SRB assay; format: functional, cell-based; conditions: MGC-803, 72 h
[5] = system: U-937; assay: Antiproliferative activity against human U-937 cells assessed as cell growth inhibition after 72 hrs by CCK8 assay; format: functional, cell-based; conditions: U-937, 72 h
[6] = system: A549; assay: Antiproliferative activity against human A549 cells assessed as cell growth inhibition after 72 hrs by SRB assay; format: functional, cell-based; conditions: A549, 72 h
[7] = biological target: Tubulin; assay: Inhibition of tubulin polymerization (unknown origin) measured after 1 min by fluorescence assay; format: protein-complex assay, Homo sapiens
[8] = biological target: Histone deacetylase; assay: Inhibition of HDAC (unknown origin); format: protein assay, Homo sapiens
[9] = biological target: T1, Histone deacetylase 8 (Homo sapiens, UniProt Q9BY41); assay: Inhibition of HDAC8 (unknown origin)
T1 sequence (Q9BY41 whole entry): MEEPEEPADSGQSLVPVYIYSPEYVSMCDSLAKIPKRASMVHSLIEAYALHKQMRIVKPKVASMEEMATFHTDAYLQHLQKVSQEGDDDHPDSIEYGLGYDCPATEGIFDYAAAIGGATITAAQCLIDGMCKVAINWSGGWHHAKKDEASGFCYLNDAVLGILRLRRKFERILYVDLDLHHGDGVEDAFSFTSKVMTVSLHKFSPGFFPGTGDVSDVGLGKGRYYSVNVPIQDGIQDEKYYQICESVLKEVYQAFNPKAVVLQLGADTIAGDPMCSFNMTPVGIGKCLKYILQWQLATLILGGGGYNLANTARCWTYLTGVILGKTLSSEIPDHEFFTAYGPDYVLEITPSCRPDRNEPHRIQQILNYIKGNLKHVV

[10] = biological target: Histone deacetylase 2 (Homo sapiens, UniProt Q92769); assay: Inhibition of HDAC2 (unknown origin)
[11] = biological target: Histone deacetylase 3 (Homo sapiens, UniProt O15379); assay: Inhibition of HDAC3 (unknown origin)
[12] = biological target: Histone deacetylase 1 (Homo sapiens, UniProt Q13547); assay: Inhibition of HDAC1 (unknown origin)
[13] = biological target: T2, Histone deacetylase 11 (Homo sapiens, UniProt Q96DB2); assay: Inhibition of HDAC11 (unknown origin)
T2 sequence (Q96DB2 whole entry): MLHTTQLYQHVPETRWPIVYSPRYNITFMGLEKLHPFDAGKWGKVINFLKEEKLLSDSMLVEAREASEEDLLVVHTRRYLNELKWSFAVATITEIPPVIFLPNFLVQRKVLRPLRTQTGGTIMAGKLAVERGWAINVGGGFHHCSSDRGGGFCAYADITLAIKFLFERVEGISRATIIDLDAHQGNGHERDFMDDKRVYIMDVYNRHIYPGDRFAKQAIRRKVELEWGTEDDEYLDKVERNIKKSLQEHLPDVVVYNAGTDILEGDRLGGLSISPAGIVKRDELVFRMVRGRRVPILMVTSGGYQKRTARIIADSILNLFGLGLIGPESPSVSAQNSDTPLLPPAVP

Sequence of Histone deacetylase 2 (Q92769 whole entry): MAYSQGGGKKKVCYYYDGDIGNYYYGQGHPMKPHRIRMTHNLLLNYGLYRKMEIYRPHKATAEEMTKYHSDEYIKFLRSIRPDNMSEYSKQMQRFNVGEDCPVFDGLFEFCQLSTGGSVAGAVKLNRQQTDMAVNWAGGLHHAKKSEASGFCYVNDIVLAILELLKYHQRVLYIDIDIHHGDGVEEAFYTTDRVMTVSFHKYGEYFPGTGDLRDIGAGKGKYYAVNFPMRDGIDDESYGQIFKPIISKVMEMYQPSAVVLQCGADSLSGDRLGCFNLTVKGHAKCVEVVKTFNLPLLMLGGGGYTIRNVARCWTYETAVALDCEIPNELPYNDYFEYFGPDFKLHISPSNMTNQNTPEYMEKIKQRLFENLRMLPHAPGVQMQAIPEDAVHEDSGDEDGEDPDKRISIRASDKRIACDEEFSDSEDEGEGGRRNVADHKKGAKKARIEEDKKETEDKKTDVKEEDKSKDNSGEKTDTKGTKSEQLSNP
Sequence of Histone deacetylase 1 (Q13547 whole entry): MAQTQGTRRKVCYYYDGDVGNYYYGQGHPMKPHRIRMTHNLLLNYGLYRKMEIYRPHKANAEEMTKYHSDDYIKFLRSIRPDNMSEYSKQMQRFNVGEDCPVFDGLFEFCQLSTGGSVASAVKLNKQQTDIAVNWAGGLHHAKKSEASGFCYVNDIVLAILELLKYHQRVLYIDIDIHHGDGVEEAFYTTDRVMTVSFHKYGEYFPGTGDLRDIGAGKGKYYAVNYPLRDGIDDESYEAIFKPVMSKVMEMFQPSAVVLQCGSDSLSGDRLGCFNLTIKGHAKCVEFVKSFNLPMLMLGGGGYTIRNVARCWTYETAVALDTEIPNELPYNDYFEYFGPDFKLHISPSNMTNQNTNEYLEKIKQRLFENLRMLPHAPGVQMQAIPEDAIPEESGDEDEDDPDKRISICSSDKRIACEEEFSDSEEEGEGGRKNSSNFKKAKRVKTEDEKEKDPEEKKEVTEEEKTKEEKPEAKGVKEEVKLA
Sequence of Histone deacetylase 3 (O15379 whole entry): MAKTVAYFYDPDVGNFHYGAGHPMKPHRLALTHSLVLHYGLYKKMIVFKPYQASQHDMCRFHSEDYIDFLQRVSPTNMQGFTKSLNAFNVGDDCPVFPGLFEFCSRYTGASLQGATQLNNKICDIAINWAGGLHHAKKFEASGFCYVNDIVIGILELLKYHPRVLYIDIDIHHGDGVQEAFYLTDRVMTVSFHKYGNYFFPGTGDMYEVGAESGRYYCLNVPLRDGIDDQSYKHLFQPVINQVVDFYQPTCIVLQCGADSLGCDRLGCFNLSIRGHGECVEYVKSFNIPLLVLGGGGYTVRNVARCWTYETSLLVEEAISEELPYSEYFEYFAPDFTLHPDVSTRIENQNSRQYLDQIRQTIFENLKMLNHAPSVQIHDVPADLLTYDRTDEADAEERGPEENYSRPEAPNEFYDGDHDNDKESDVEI

| Structure (SMILES) | IC50 [1] [nM] | IC50 [2] [nM] | IC50 [3] [nM] | IC50 [4] [nM] | IC50 [5] [nM] | IC50 [6] [nM] | IC50 ([7]; read-out: IC50) [nM] | IC50 [8] [nM] | IC50 [9] | IC50 [10] | IC50 [11] | IC50 [12] | IC50 [13] | IC50 [7] |
| --- | --- | --- | --- | --- | --- | --- | --- | --- | --- | --- | --- | --- | --- | --- |
| COc1ccc(/C=C\c2cc(OC)c(OC)c(OC)c2)cc1Oc1ccc(C(=O)NO)cc1 | 4550 | 1470 | 1470 | 927 | 3500 | 1470 |  |  |  |  |  |  |  |  |
| COc1ccc(/C=C\c2cc(OC)c(OC)c(OC)c2)cc1Oc1ccc(C(=O)Nc2ccccc2N)cn1 | 4920 | 2610 | > 5000 | 1290 | 3220 | > 5000 |  |  |  |  |  |  |  |  |
| COc1ccc(/C=C\c2cc(OC)c(OC)c(OC)c2)cc1Oc1ccc(C(=O)NO)cn1 | > 5000 | 485 | 2440 | 1090 | 3320 | 2440 |  |  |  |  |  |  |  |  |
| O=C(NCC1(c2nc(-c3ccccc3)cs2)CCOCC1)c1cccc(-c2noc(C(F)(F)F)n2)c1 |  |  |  |  |  |  |  |  | Not Active | Not Active | Not Active | Not Active | Not Active |  |
| COc1ccc(C(=O)c2cc(OC)c(OC)c(OC)c2)c(/C=C/C(=O)Nc2ccccc2N)c1 | 1560 | 1180 | 1040 | 1610 | 1680 | 3210 |  |  |  |  |  |  |  |  |
| COc1ccc(/C=C\c2cc(OC)c(OC)c(OC)c2)cc1OCc1ccc(C(=O)Nc2ccccc2N)cc1 | 3410 | 1470 | 2210 | 604 | 1790 | 2210 |  |  |  |  |  |  |  |  |
| COc1ccc(/C=C\c2cc(OC)c(OC)c(OC)c2)c(/C=C/C(=O)Nc2ccccc2N)c1 | 2760 | 2120 | 1960 | 301 | 3750 | 4690 |  |  |  |  |  |  |  |  |
| COc1ccc(/C=C\c2cc(OC)c(OC)c(OC)c2)c(/C=C/C(=O)NO)c1 | 164 | 641 | 61 | 146 | 995 | 2230 |  |  |  |  |  |  |  |  |
| COc1ccc(/C=C\c2cc(OC)c(OC)c(OC)c2)cc1/C=C/C(=O)NO | 252 | 158 | 257 | 208 | 805 | 254 |  |  |  |  |  |  |  |  |
| COc1ccc(/C=C\c2cc(OC)c(OC)c(OC)c2)cc1OCCCCC(=O)Nc1ccccc1N | > 5000 | > 5000 | > 5000 | > 5000 | > 5000 | > 5000 |  |  |  |  |  |  |  |  |
| O=C(CCCCCCC(=O)Nc1ccccc1)NO [VORINOSTAT] |  |  |  |  |  |  |  |  |  |  |  |  |  | Not Active |
| COc1ccc(/C=C\c2cc(OC)c(OC)c(OC)c2)cc1Oc1ccc(C(C)(C)C(=O)Nc2ccccc2N)cc1 | > 5000 | > 5000 | > 5000 | > 5000 | > 5000 | > 5000 |  |  |  |  |  |  |  |  |
| COc1ccc(/C=C\c2cc(OC)c(OC)c(OC)c2)cc1Oc1ccc(C(=O)Nc2ccccc2N)cc1 | 4700 | 1570 | > 5000 | 1360 | 4330 | > 5000 |  |  |  |  |  |  |  |  |
| COc1ccc(/C=C\c2cc(OC)c(OC)c(OC)c2)cc1Oc1ccc(C(C)(C)C(=O)NO)cc1 | > 5000 | > 5000 | > 5000 | > 5000 | > 5000 | > 5000 |  |  |  |  |  |  |  |  |
| COc1ccc(/C=C\c2cc(OC)c(OC)c(OC)c2)cc1OCCCC(=O)Nc1ccccc1N | > 5000 | 4280 | 740 | > 5000 | 5780 | 3240 |  |  |  |  |  |  |  |  |

More lines, now with the values ahead:

| IC50 [1] [nM] | IC50 [2] [nM] | IC50 [3] [nM] | IC50 [4] [nM] | IC50 [5] [nM] | IC50 [6] [nM] | IC50 ([7]; read-out: IC50) [nM] | IC50 [8] [nM] | IC50 [9] | IC50 [10] | IC50 [11] | IC50 [12] | IC50 [13] | IC50 [7] | Structure (SMILES) |
| --- | --- | --- | --- | --- | --- | --- | --- | --- | --- | --- | --- | --- | --- | --- |
| 3560 | 2810 | 189 | 1130 | 3320 | 4810 |  |  |  |  |  |  |  |  | COc1ccc(/C=C\c2cc(OC)c(OC)c(OC)c2)cc1OCCCCC(=O)NO |
| > 5000 | > 5000 | > 5000 | > 5000 | > 5000 | > 5000 |  |  |  |  |  |  |  |  | COc1ccc(C(=O)c2cc(OC)c(OC)c(OC)c2)cc1Oc1ccc(C(=O)NO)cn1 |
| > 5000 | > 5000 | > 5000 | > 5000 | > 5000 | > 5000 |  |  |  |  |  |  |  |  | COc1ccc(C(=O)c2cc(OC)c(OC)c(OC)c2)cc1OCCCC(=O)NO |
| > 5000 | > 5000 | > 5000 | > 5000 | > 5000 | > 5000 |  |  |  |  |  |  |  |  | COc1ccc(C(=O)c2cc(OC)c(OC)c(OC)c2)cc1OCc1ccc(C(=O)NO)cc1 |
| 122 | 419 | 64 | 13 | > 5000 | 285 |  |  |  |  |  |  |  |  | COc1ccc(/C=C\c2cc(OC)c(OC)c(OC)c2)cc1OCC(=O)NO |
| 1160 | 828 | 1180 | 1100 | 2250 | 3210 |  |  |  |  |  |  |  |  | COc1ccc(C(=O)c2cc(OC)c(OC)c(OC)c2)cc1/C=C/C(=O)Nc1ccccc1N |
| 1330 | 817 | 440 | 182 | 389 | 440 | 8600 | 390 |  |  |  |  |  |  | COc1ccc(/C=C\c2cc(OC)c(OC)c(OC)c2)cc1OCc1ccc(C(=O)NO)cc1 |
| > 5000 | > 5000 | > 5000 | > 5000 | > 5000 | > 5000 |  |  |  |  |  |  |  |  | COc1ccc(C(=O)c2cc(OC)c(OC)c(OC)c2)cc1OCCCCC(=O)NO |
| > 5000 | > 5000 | > 5000 | > 5000 | > 5000 | > 5000 |  |  |  |  |  |  |  |  | COc1ccc(/C=C\c2cc(OC)c(OC)c(OC)c2)cc1OCC(=O)Nc1ccccc1N |
| 81 | 982 | 31 | 63 | 2540 | 371 | 5200 | 1400 |  |  |  |  |  |  | COc1ccc(/C=C\c2cc(OC)c(OC)c(OC)c2)cc1OCCCC(=O)NO |
| > 5000 | > 5000 | > 5000 | > 5000 | > 5000 | > 5000 |  |  |  |  |  |  |  |  | COc1ccc(C(=O)c2cc(OC)c(OC)c(OC)c2)cc1Oc1ccc(C(=O)Nc2ccccc2N)cn1 |
| > 5000 | > 5000 | > 5000 | > 5000 | > 5000 | > 5000 |  |  |  |  |  |  |  |  | COc1ccc(C(=O)c2cc(OC)c(OC)c(OC)c2)cc1Oc1ccc(C(=O)NO)cc1 |
| > 5000 | > 5000 | > 5000 | > 5000 | > 5000 | > 5000 |  |  |  |  |  |  |  |  | COc1ccc(C(=O)c2cc(OC)c(OC)c(OC)c2)cc1OCCCC(=O)Nc1ccccc1N |
| 521 | 189 | 753 | 105 | 1130 | > 5000 | 19600 | 250 |  |  |  |  |  |  | COc1ccc(C(=O)c2cc(OC)c(OC)c(OC)c2)cc1OCC(=O)NO |
| > 5000 | > 5000 | > 5000 | > 5000 | > 5000 | > 5000 |  |  |  |  |  |  |  |  | COc1ccc(C(=O)c2cc(OC)c(OC)c(OC)c2)cc1Oc1ccc(C(=O)Nc2ccccc2N)cc1 |
| > 5000 | > 5000 | > 5000 | > 5000 | 758 | > 5000 |  |  |  |  |  |  |  |  | COc1ccc(C(=O)c2cc(OC)c(OC)c(OC)c2)cc1OCC(=O)Nc1ccccc1N |
| > 5000 | > 5000 | > 5000 | > 5000 | > 5000 | > 5000 |  |  |  |  |  |  |  |  | COc1ccc(C(=O)c2cc(OC)c(OC)c(OC)c2)cc1OCc1ccc(C(=O)Nc2ccccc2N)cc1 |
| > 5000 | > 5000 | > 5000 | > 5000 | > 5000 | > 5000 |  |  |  |  |  |  |  |  | COc1ccc(C(=O)c2cc(OC)c(OC)c(OC)c2)cc1OCCCCC(=O)Nc1ccccc1N |
